PMC9732253, “Inhibition of the Phosphatidylinositol-3 Kinase Pathway Using Bimiralisib in Loss-of-Function NOTCH1-Mutant Head and Neck Cancer” (The Oncologist, 2022)

Protocol: All patients received 140 mg bimiralisib (PQR309) orally once daily on 2 consecutive days followed by 5 days without treatment weekly until unacceptable toxicity, tumor progression, patient request for withdrawal, investigator judgment, or death.
Radiologic tumor assessments were performed using computed tomography at baseline and every 6 weeks. Safety was continuously monitored.

## Nc1cc(C(F)(F)F)c(-c2nc(N3CCOCC3)nc(N3CCOCC3)n2)cn1 [Bimiralisib, 5-(4,6-dimorpholino-1,3,5-triazin-2-yl)-4-(trifluoromethyl)pyridin-2-amine]
N = 8
  General disorders and administration site conditions, Grade 1, total number of events: 6
  General disorders and administration site conditions, Grade 2, patients: 1 (12.5) n (%)
  General disorders and administration site conditions, Grade 2, total number of events: 1
  General disorders and administration site conditions, Grade 3/4, patients: 1 (12.5) n (%)
  General disorders and administration site conditions, Grade 3/4, total number of events: 1
  Hemorrhage, Grade 1, patients: 0 n (%)
  Hemorrhage, Grade 1, total number of events: 0
  Hemorrhage, Grade 2, patients: 0 n (%)
  Hemorrhage, Grade 2, total number of events: 0
  Hemorrhage, Grade 3/4, patients: 1 (12.5) n (%)
  Hemorrhage, Grade 3/4, total number of events: 1
  Hyperglycemia, Grade 1, patients: 1 (12.5) n (%)
  Hyperglycemia, Grade 1, total number of events: 1
  Hyperglycemia, Grade 2, patients: 0 n (%)
  Hyperglycemia, Grade 2, total number of events: 0
  Hyperglycemia, Grade 3/4, patients: 2 (25.0) n (%)
  Hyperglycemia, Grade 3/4, total number of events: 2
  Hypocalcemia, Grade 1, patients: 0 n (%)
  Hypocalcemia, Grade 1, total number of events: 0
  Hypocalcemia, Grade 2, patients: 1 (12.5) n (%)
  Hypocalcemia, Grade 2, total number of events: 1
  Hypocalcemia, Grade 3/4, patients: 0 n (%)
  Hypocalcemia, Grade 3/4, total number of events: 0
  Hypotension, Grade 1, patients: 1 (12.5) n (%)
  Hypotension, Grade 1, total number of events: 1
  Hypotension, Grade 2, patients: 0 n (%)
  Hypotension, Grade 2, total number of events: 0
  Hypotension, Grade 3/4, patients: 0 n (%)
  Hypotension, Grade 3/4, total number of events: 0
  Infections and infestations, Grade 3/4, patients: 3 (37.5) n (%)
  Injury, poisoning and procedural complications, Grade 1, patients: 1 (12.5) n (%)
  Injury, poisoning and procedural complications, Grade 1, total number of events: 1
  Injury, poisoning and procedural complications, Grade 2, patients: 0 n (%)
  Injury, poisoning and procedural complications, Grade 2, total number of events: 0
  Injury, poisoning and procedural complications, Grade 3/4, patients: 0 n (%)
  Injury, poisoning and procedural complications, Grade 3/4, total number of events: 0
  Investigations, Grade 1, patients: 3 (37.5) n (%)
  Investigations, Grade 1, total number of events: 3
  Investigations, Grade 2, patients: 0 n (%)
  Investigations, Grade 2, total number of events: 0
  Investigations, Grade 3/4, patients: 1 (12.5) n (%)
  Investigations, Grade 3/4, total number of events: 2
  Laryngeal stenosis, Grade 1, patients: 0 n (%)
  Laryngeal stenosis, Grade 1, total number of events: 0
  Laryngeal stenosis, Grade 2, patients: 0 n (%)
  Laryngeal stenosis, Grade 2, total number of events: 0
  Laryngeal stenosis, Grade 3/4, patients: 1 (12.5) n (%)
  Laryngeal stenosis, Grade 3/4, total number of events: 1
  Metabolism and nutrition disorders, Grade 1, patients: 1 (12.5) n (%)
  Metabolism and nutrition disorders, Grade 1, total number of events: 1
  Metabolism and nutrition disorders, Grade 2, patients: 2 (25.0) n (%)
  Metabolism and nutrition disorders, Grade 2, total number of events: 3
  Metabolism and nutrition disorders, Grade 3/4, patients: 2 (25.0) n (%)
  Metabolism and nutrition disorders, Grade 3/4, total number of events: 2
  Musculoskeletal and connective tissue disorders, Grade 1, patients: 1 (12.5) n (%)
  Musculoskeletal and connective tissue disorders, Grade 1, total number of events: 2
  Musculoskeletal and connective tissue disorders, Grade 2, patients: 0 n (%)
  Musculoskeletal and connective tissue disorders, Grade 2, total number of events: 0
  Musculoskeletal and connective tissue disorders, Grade 3/4, patients: 0 n (%)
  Musculoskeletal and connective tissue disorders, Grade 3/4, total number of events: 0
  Nausea, Grade 1, patients: 1 (12.5) n (%)
  Nausea, Grade 1, total number of events: 1
  Nausea, Grade 2, patients: 2 (25.0) n (%)
  Nausea, Grade 2, total number of events: 2
  Nausea, Grade 3/4, patients: 0 n (%)
  Nausea, Grade 3/4, total number of events: 0
  Neck pain, Grade 1, patients: 1 (12.5) n (%)
  Neck pain, Grade 1, total number of events: 1
  Neck pain, Grade 2, patients: 0 n (%)
  Neck pain, Grade 2, total number of events: 0
  Neck pain, Grade 3/4, patients: 0 n (%)
  Neck pain, Grade 3/4, total number of events: 0
  Nervous system disorders, Grade 1, patients: 1 (12.5) n (%)
  Nervous system disorders, Grade 1, total number of events: 2
  Nervous system disorders, Grade 2, patients: 1 (12.5) n (%)
  Nervous system disorders, Grade 2, total number of events: 1
  Nervous system disorders, Grade 3/4, patients: 0 n (%)
  Nervous system disorders, Grade 3/4, total number of events: 0
  Osteomyelitis acute, Grade 1, patients: 0 n (%)
  Osteomyelitis acute, Grade 1, total number of events: 0
  Osteomyelitis acute, Grade 2, patients: 0 n (%)
  Osteomyelitis acute, Grade 2, total number of events: 0
  Osteomyelitis acute, Grade 3/4, patients: 1 (12.5) n (%)
  Osteomyelitis acute, Grade 3/4, total number of events: 1
  Pain in jaw, Grade 1, patients: 1 (12.5) n (%)
  Pain in jaw, Grade 1, total number of events: 1
  Pain in jaw, Grade 2, patients: 0 n (%)
  Pain in jaw, Grade 2, total number of events: 0
  Pain in jaw, Grade 3/4, patients: 0 n (%)
  Pain in jaw, Grade 3/4, total number of events: 0
  Platelet count decreased, Grade 1, patients: 1 (12.5) n (%)
  Platelet count decreased, Grade 1, total number of events: 1
  Platelet count decreased, Grade 2, patients: 0 n (%)
  Platelet count decreased, Grade 2, total number of events: 0
  Platelet count decreased, Grade 3/4, patients: 0 n (%)
  Platelet count decreased, Grade 3/4, total number of events: 0
  Pneumonia aspiration, Grade 1, patients: 0 n (%)
  Pneumonia aspiration, Grade 1, total number of events: 0
  Pneumonia aspiration, Grade 2, patients: 0 n (%)
  Pneumonia aspiration, Grade 2, total number of events: 0
  Pneumonia aspiration, Grade 3/4, patients: 2 (25.0) n (%)
  Pneumonia aspiration, Grade 3/4, total number of events: 2
  Presyncope, Grade 1, patients: 0 n (%)
  Presyncope, Grade 1, total number of events: 0
  Presyncope, Grade 2, patients: 1 (12.5) n (%)
  Presyncope, Grade 2, total number of events: 1
  Presyncope, Grade 3/4, patients: 0 n (%)
  Presyncope, Grade 3/4, total number of events: 0
  Pruritus, Grade 1, patients: 1 (12.5) n (%)
  Pruritus, Grade 1, total number of events: 1
  Pruritus, Grade 2, patients: 0 n (%)
  Pruritus, Grade 2, total number of events: 0
  Pruritus, Grade 3/4, patients: 0 n (%)
  Pruritus, Grade 3/4, total number of events: 0
  Psychiatric disorders, Grade 1, patients: 2 (25.0) n (%)
  Psychiatric disorders, Grade 1, total number of events: 2
  Psychiatric disorders, Grade 2, patients: 0 n (%)
  Psychiatric disorders, Grade 2, total number of events: 0
  Psychiatric disorders, Grade 3/4, patients: 0 n (%)
  Psychiatric disorders, Grade 3/4, total number of events: 0
  Pyrexia, Grade 1, patients: 1 (12.5) n (%)
  Pyrexia, Grade 1, total number of events: 1
  Pyrexia, Grade 2, patients: 0 n (%)
  Pyrexia, Grade 2, total number of events: 0
  Pyrexia, Grade 3/4, patients: 0 n (%)
  Pyrexia, Grade 3/4, total number of events: 0
  Rash, Grade 1, patients: 2 (25.0) n (%)
  Rash, Grade 1, total number of events: 2
  Rash, Grade 2, patients: 0 n (%)
  Rash, Grade 2, total number of events: 0
  Rash, Grade 3/4, patients: 0 n (%)
  Rash, Grade 3/4, total number of events: 0
  Renal and urinary disorders, Grade 1, patients: 1 (12.5) n (%)
  Renal and urinary disorders, Grade 1, total number of events: 1
  Renal and urinary disorders, Grade 2, patients: 0 n (%)
  Renal and urinary disorders, Grade 2, total number of events: 0
  Renal and urinary disorders, Grade 3/4, patients: 1 (12.5) n (%)
  Renal and urinary disorders, Grade 3/4, total number of events: 1
  Renal injury, Grade 1, patients: 0 n (%)
  Renal injury, Grade 1, total number of events: 0
  Renal injury, Grade 2, patients: 0 n (%)
  Renal injury, Grade 2, total number of events: 0
  Renal injury, Grade 3/4, patients: 1 (12.5) n (%)
  Renal injury, Grade 3/4, total number of events: 1
  Respiratory, thoracic and mediastinal disorders, Grade 1, patients: 1 (12.5) n (%)
  Respiratory, thoracic and mediastinal disorders, Grade 1, total number of events: 1
  Respiratory, thoracic and mediastinal disorders, Grade 2, patients: 0 n (%)
  Respiratory, thoracic and mediastinal disorders, Grade 2, total number of events: 0
  Respiratory, thoracic and mediastinal disorders, Grade 3/4, patients: 3 (37.5) n (%)
  Respiratory, thoracic and mediastinal disorders, Grade 3/4, total number of events: 4
  Seizure, Grade 1, patients: 1 (12.5) n (%)
  Seizure, Grade 1, total number of events: 1
  Seizure, Grade 2, patients: 0 n (%)
  Seizure, Grade 2, total number of events: 0
  Seizure, Grade 3/4, patients: 0 n (%)
  Seizure, Grade 3/4, total number of events: 0
  Sepsis, Grade 3/4, total number of events: 1
  Skin and subcutaneous tissue disorders, Grade 1, patients: 2 (25.0) n (%)
  Skin and subcutaneous tissue disorders, Grade 1, total number of events: 4
  Skin and subcutaneous tissue disorders, Grade 2, patients: 0 n (%)
  Skin and subcutaneous tissue disorders, Grade 2, total number of events: 0
  Skin and subcutaneous tissue disorders, Grade 3/4, patients: 0 n (%)
  Skin and subcutaneous tissue disorders, Grade 3/4, total number of events: 0
  Skin infection, Grade 3/4, total number of events: 1
  Sunburn, Grade 1, patients: 1 (12.5) n (%)
  Sunburn, Grade 1, total number of events: 1
  Sunburn, Grade 2, patients: 0 n (%)
  Sunburn, Grade 2, total number of events: 0
  Sunburn, Grade 3/4, patients: 0 n (%)
  Sunburn, Grade 3/4, total number of events: 0
  Tinnitus, Grade 1, patients: 1 (12.5) n (%)
  Tinnitus, Grade 1, total number of events: 1
  Tinnitus, Grade 2, patients: 0 n (%)
  Tinnitus, Grade 2, total number of events: 0
  Tinnitus, Grade 3/4, patients: 0 n (%)
  Tinnitus, Grade 3/4, total number of events: 0
  Urinary tract discomfort, Grade 1, patients: 1 (12.5) n (%)
  Urinary tract discomfort, Grade 1, total number of events: 1
  Urinary tract discomfort, Grade 2, patients: 0 n (%)
  Urinary tract discomfort, Grade 2, total number of events: 0
  Urinary tract discomfort, Grade 3/4, patients: 0 n (%)
  Urinary tract discomfort, Grade 3/4, total number of events: 0
  Vascular disorders, Grade 1, patients: 1 (12.5) n (%)
  Vascular disorders, Grade 1, total number of events: 1
  Vascular disorders, Grade 2, patients: 0 n (%)
  Vascular disorders, Grade 2, total number of events: 0
  Vascular disorders, Grade 3/4, patients: 1 (12.5) n (%)
  Vascular disorders, Grade 3/4, total number of events: 1
  Vomiting, Grade 1, patients: 0 n (%)
  Vomiting, Grade 1, total number of events: 0
  Vomiting, Grade 2, patients: 2 (25.0) n (%)
  Vomiting, Grade 2, total number of events: 2
  Vomiting, Grade 3/4, patients: 0 n (%)
  Vomiting, Grade 3/4, total number of events: 0
  Wound infection, Grade 3/4, total number of events: 0
Of 8
  Patients with at least one treatment-emergent AE: 8 patients
on-treatment period
  Nonfatal SAEs not related to bimiralisib: 10
Patient 4, related to treatment
  Time to normalization of grade 3 elevated alanine and aspartate aminotransferase after therapy discontinuation: 28 days
